From ChEMBL document CHEMBL1201862, “PubChem BioAssay data set” (2004) come the findings set out here.

Activity calls are given as the source filed them.

A short description of experiment [1]: ADAM10 protease inhibitors, dose response, selectivity assay for ADAM17 exosite inhibitor project, biochemical, FRET peptide substrate, recombinant human ADAM10 (AID 743259).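 Also: ADAM10 enzyme cleaving a FRET peptide substrate.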
Experiment [2] has as its target Disintegrin and metalloproteinase domain-containing protein 17 (Homo sapiens, UniProt P78536). The experiment in a line: exosite inhibitors of ADAM17, dose response, biochemical (AID 743260).
In experiment [3] the target is Mitogen-activated protein kinase 10 (Homo sapiens, UniProt P53779). Briefly: Dose response biochemical screening assay for inhibitors of c-Jun N-Terminal Kinase 3 (JNK3). [Related pubchem assays: 746 ].
Experiment [4] can be described thus: M. tuberculosis growth inhibition, HTS (AID 449762). The format is functional.
Experiment [5] is described as follows: microbe, parasite or virus in culture. The format is functional. As to conditions: Mycobacterium tuberculosis.
The next experiment concerns the target Beta-galactosidase (Escherichia coli, UniProt Q8VNN2). Briefly: Dose response counterscreen for EBI2 assay utilizing the enzyme, b-galactosidase. It counts as functional. In general terms: Counterscreens check selectivity or assay interference.
In experiment [6] the target is T1, NADPH oxidase 1 (Homo sapiens, UniProt Q9Y5S8). The experiment in a line: Late-stage luminescence-based cell-based dose response assay to identify inhibitors of NADPH oxidase 1 (NOX1): Synthesized analogs 2. It counts as functional.
The target of experiment [7] is T1, NADPH oxidase 1. The experiment in a line: Late-stage luminescence-based cell-based dose response assay to identify inhibitors of NADPH oxidase 1 (NOX1): Synthesized analogs 3. It counts as functional.
Experiment [8] is described as follows: Luminescent dose response cell-based high throughput screening assay for inhibitors of the Janus kinase 2 mutant JAK2V617F. [Related pubchem assays: 1446 (Primary screen.), 1521 (Confirmation assay.), 1486 (Counter screen.)]. It counts as functional.
For experiment [9], the target named is 5-hydroxytryptamine receptor 1A (Homo sapiens, UniProt P08908). It counts as functional.
The target in experiment [10] is Photoreceptor-specific nuclear receptor (Homo sapiens, UniProt Q9Y5X4). Briefly: NR2E3 inverse agonists, dose response, biochemical, TR-FRET (AID 463256). It counts as functional. For orientation: TR-FRET usually uses a lanthanide donor and a delayed reading to cut background.
Experiment [11] addresses Peroxisome proliferator-activated receptor gamma/Nuclear receptor corepressor 2 (Homo sapiens, UniProt P37231+Q9Y618). Briefly: Counterscreen for NR2E3 inverse agonists: TR-FRET-based biochemical high throughput dose response assay to identify inverse agonists of the interaction between peroxisome proliferator-activated receptor gamma (PPARg) and nuclear receptor co-repressor 2 (NCOR2). It counts as functional.

The target of another experiment is Protein Tat (Human immunodeficiency virus type 1 group M subtype B (isolate HXB2)(HIV-1), UniProt P04608). It counts as functional.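 Also: tat binding to TAR RNA read out by fluorescence polarization.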
In experiment [12] the target is T2, Sphingosine 1-phosphate receptor 2 (Homo sapiens, UniProt O95136). The experiment in a line: Dose Response Cell Based Assay for Agonists of the S1P2 Receptor of Purchased Analogues. [Related pubchem assays: 729, 843, 854, 736 ]. The format is functional.
Experiment [13] addresses T2, Sphingosine 1-phosphate receptor 2. Briefly: Dose Response Cell Based Assay for Agonists of the S1P2 Receptor. [Related pubchem assays: 729, 736, 843 ]. It counts as functional.

T1 sequence (Q9Y5S8 whole entry): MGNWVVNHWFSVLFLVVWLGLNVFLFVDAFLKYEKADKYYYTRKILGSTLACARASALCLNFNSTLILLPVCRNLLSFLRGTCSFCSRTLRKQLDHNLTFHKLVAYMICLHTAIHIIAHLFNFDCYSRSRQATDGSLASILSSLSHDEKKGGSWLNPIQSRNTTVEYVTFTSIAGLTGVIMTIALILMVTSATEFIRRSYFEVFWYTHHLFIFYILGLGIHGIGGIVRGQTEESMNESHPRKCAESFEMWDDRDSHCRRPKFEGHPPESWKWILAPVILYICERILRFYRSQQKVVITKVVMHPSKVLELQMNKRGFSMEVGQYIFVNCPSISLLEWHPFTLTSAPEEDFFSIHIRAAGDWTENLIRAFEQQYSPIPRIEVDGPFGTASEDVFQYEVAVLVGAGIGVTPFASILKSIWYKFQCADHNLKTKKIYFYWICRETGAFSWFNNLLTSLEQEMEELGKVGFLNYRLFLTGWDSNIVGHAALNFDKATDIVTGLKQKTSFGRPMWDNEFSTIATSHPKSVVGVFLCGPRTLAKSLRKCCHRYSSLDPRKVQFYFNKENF
T2 sequence (O95136 whole entry): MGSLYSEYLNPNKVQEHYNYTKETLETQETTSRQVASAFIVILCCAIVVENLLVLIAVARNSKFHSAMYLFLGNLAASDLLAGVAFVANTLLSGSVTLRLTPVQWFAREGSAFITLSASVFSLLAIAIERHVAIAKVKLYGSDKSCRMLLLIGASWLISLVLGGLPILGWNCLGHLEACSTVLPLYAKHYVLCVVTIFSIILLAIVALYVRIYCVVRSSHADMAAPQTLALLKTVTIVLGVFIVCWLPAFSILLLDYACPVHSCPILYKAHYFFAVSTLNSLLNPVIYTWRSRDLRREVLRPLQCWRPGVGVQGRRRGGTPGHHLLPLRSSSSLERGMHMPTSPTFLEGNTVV
Sequence of Photoreceptor-specific nuclear receptor (Q9Y5X4 whole entry): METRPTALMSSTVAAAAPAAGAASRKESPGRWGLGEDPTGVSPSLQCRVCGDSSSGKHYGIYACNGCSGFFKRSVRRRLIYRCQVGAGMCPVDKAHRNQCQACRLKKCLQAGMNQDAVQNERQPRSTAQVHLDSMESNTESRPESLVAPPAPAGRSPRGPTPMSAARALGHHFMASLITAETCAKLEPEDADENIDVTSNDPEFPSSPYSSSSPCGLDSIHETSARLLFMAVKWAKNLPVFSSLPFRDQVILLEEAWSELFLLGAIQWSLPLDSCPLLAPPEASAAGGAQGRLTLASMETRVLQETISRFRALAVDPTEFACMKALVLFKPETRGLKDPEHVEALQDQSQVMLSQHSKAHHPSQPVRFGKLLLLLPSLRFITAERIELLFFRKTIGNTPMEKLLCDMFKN
Sequence of 5-hydroxytryptamine receptor 1A (P08908 whole entry): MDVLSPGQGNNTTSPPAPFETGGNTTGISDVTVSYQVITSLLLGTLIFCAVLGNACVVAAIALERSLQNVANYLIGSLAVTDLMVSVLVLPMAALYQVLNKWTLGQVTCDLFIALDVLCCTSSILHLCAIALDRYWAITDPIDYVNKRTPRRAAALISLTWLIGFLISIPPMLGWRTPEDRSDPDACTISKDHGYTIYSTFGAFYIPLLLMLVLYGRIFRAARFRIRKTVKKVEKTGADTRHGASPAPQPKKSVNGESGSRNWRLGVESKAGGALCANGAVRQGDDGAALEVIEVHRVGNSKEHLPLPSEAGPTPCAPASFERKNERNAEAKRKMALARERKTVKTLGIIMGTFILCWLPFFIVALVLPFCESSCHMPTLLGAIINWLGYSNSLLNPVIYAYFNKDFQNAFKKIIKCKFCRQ
Sequence of Peroxisome proliferator-activated receptor gamma/Nuclear receptor corepressor 2 (P37231 whole entry): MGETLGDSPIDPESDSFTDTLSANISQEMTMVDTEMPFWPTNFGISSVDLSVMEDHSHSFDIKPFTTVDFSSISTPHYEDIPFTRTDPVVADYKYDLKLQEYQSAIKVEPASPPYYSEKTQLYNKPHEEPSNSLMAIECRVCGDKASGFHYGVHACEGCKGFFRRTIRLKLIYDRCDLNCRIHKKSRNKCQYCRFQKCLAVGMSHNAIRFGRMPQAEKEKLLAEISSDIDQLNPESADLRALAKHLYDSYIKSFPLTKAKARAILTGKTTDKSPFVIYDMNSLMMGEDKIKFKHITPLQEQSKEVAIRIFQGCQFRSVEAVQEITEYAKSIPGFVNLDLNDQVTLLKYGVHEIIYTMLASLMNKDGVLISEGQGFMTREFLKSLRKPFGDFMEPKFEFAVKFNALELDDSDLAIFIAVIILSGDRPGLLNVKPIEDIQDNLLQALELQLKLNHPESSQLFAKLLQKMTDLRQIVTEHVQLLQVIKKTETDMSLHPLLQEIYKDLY
Sequence of Peroxisome proliferator-activated receptor gamma/Nuclear receptor corepressor 2 (Q9Y618 whole entry): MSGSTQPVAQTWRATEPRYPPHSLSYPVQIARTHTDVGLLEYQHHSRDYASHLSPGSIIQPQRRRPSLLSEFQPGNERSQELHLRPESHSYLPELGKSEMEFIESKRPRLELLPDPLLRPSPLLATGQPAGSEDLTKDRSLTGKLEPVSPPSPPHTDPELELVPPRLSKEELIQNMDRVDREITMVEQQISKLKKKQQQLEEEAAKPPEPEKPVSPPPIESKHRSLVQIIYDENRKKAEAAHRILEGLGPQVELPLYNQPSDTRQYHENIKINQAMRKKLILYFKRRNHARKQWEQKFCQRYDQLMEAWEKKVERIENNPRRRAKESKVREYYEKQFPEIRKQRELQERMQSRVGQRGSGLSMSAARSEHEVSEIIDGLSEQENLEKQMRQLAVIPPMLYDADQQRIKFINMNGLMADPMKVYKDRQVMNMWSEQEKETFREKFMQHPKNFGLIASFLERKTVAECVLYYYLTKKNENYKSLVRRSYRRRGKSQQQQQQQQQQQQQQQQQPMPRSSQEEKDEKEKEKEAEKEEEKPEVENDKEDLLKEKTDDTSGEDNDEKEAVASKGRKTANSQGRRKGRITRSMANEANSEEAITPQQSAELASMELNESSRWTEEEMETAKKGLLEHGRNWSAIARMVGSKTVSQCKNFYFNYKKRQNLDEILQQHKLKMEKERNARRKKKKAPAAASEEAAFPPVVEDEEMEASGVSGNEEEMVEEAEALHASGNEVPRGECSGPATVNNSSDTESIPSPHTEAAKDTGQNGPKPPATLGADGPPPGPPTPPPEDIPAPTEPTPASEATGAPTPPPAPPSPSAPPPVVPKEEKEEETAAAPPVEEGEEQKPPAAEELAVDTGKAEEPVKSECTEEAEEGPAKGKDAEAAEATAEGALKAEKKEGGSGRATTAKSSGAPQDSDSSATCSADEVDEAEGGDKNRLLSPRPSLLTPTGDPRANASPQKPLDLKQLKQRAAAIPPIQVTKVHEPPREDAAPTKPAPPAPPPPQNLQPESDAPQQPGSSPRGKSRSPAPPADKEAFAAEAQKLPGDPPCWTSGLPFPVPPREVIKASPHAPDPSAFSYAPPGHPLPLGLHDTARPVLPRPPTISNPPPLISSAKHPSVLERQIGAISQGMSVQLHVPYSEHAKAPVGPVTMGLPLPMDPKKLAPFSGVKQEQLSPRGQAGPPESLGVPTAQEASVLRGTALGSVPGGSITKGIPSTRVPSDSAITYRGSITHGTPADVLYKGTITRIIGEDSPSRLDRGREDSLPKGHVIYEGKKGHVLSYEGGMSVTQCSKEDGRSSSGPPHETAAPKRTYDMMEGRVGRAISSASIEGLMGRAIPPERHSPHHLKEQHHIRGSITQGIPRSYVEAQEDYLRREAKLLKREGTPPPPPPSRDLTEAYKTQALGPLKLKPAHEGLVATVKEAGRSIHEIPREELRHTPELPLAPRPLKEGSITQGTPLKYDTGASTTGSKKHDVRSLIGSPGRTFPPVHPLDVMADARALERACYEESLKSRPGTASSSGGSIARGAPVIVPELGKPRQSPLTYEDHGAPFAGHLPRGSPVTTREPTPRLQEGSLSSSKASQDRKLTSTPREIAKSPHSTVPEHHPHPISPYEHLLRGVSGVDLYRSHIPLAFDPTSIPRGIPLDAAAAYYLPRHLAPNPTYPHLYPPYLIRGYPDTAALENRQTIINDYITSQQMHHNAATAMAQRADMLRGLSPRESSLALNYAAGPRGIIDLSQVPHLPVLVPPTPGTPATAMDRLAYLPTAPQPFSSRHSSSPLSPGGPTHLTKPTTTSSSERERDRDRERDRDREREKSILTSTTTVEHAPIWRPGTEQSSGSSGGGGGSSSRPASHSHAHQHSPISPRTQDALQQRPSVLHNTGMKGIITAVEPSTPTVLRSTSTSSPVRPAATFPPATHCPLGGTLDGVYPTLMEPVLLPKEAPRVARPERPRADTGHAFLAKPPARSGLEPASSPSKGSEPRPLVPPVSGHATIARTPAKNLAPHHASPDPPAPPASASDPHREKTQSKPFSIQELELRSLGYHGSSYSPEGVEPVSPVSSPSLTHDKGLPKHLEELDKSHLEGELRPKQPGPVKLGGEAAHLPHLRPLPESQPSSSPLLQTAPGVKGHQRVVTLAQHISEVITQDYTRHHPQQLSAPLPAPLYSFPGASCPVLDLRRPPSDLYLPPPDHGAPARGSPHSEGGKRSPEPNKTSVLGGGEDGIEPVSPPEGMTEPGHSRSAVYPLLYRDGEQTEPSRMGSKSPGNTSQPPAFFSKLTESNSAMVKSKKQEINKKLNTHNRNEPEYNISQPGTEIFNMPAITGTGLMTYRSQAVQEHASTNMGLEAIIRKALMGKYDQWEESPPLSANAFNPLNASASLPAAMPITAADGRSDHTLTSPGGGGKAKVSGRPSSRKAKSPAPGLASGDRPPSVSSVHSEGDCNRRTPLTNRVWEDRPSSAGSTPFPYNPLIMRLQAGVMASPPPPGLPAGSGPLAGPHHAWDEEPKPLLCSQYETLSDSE
Sequence of Protein Tat (P04608 whole entry): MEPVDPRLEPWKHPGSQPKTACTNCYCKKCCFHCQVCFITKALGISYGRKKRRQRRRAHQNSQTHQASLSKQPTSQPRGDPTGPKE

`C=C(C)COc1ccc(-c2nc(N)ncc2-c2ccc(OC)cc2)c(O)c1`: the IC50 is > 69.5 µM (inactive) in experiment [1], > 69.5 µM (inactive) in experiment [2] and 29.4 µM (not active) in experiment [3]. For the compound `O=C(c1cc2cc(Cl)ccc2[nH]1)N1CCN(Cc2ccc3c(c2)OCO3)CC1`, the IC50 was > 100 µM (active) in [4] and > 80 µM (inactive) at Beta-galactosidase. The CC50 in [5] was > 40 µM (active).

Consider `CN1c2ccc(Br)cc2Sc2cc(Br)ccc21`, for which the half-inhibitory concentration (IC50) against NADPH oxidase 1 [6] is on record as > 50 µM (not active). Take `CN1c2ccccc2Sc2cc(C(=O)c3ccccc3)ccc21`: at NADPH oxidase 1 [7], the concentration for half-maximal inhibition (IC50) is listed as > 20 µM (not active). For `Cc1nn2c(NCc3ccccn3)c3c(nc2c1-c1ccccc1)CCC3`, the IC50 in experiment [8] is 1.03 µM (active).

With `CCOC(=O)C1CCN(C(=O)Cc2c(C(=O)O)n(C)c3ccccc23)CC1`, the concentration for a half-maximal effect (EC50) in [9] is recorded as > 50 µM (not active). `Cc1cc(C)nc(NS(=O)(=O)c2ccc(NC(=O)CSc3nc[nH]n3)cc2)n1`: the IC50 in experiment [10] and in [11] was > 39.8 µM (not active) throughout. Turning to `COc1ccccc1N1C(=O)CC(Nc2ccc(N3CCOCC3)cc2)C1=O` (stereo not given), the IC50 at Protein Tat is 20.1 µM (inconclusive).

As to `Cc1cc(C(=O)COC(=O)C(O)c2ccccc2)c(C)n1Cc1ccccc1` (stereo not given), the EC50 in experiment [12] is reported as > 30 µM (not active).

Turning to `CCOC(=O)c1c(C)n(C)c2ccc(OCC(O)Cn3nc(C)cc3C)cc12` (stereo not given), the EC50 in [13] was 4.71 µM (active).

What is called IC50 is the midpoint of a concentration-inhibition curve. Usually EC50 stands for the concentration needed to bring the measured effect to its halfway point.
